In patent US20090263744A1, “ETHYLENICALLY UNSATURATED COMPOUND, LIGHT SENSITIVE COMPOSITION, LIGHT SENSITIVE PLANOGRAPHIC PRINTING PLATE MATERIAL AND PRINTING PROCESS EMPLOYING THE SAME” (priority 2005, published 2009):

What was measured:
[1] = Solubility of polymerizable monomer in alkali solution (25° C. KOH aqueous solution having a pH of 12.5); assay type: physicochemical; settings: Table 3, pH 12.5
Protocol: (§1) Herein, “dissolve” implies that no precipitations or oily separated components are visually observed under the following experimental conditions. Solubility in a 25° C. KOH aqueous solution having a pH of 12.5 or 25° C. pure water is represented by a value obtained by the following measuring method.
(§2) An ethylenically unsaturated compound is added to 20 ml of the solution or pure water described above at 25° C. in a 100 ml conical flask, stirred with a stirrer having a 1 cm long stirrer piece at a rate of 300 rpm for one hour, then allowed to stand for five minutes.
(§3) Solubility of polymerizable monomer to water or an alkali solution was measured according to the procedure described above.

[2] = Solubility of polymerizable monomer in 25° C. pure water (visual, no precipitations or oily separated components); assay type: physicochemical
Protocol: as §1, §2, §3

C=CC(=O)OCC(CO)(COC(=O)C=C)COC(=O)C=C [PETA, Pentaerythritol triacrylate]
Solubility of polymerizable monomer, Alkali solution [1]: 0.1 % by weight
Solubility of polymerizable monomer weight % (water) ([2]; Table 2, water, 25° C.): 0.1 weight %
Solubility of polymerizable monomer, Pure water ([2]; Table 3, 25° C. pure water): 0.1 % by weight
